{"source": "paper PMC10104254", "about": "“Development of a novel angiotensin converting enzyme 2 stimulator with broad implications in SARS-CoV2 and type 1 diabetes” (Research Square, 2023)", "key": {"rhACE2 [1]": {"target": "T1, rhACE2 (Homo sapiens, UniProt Q9BYF1)", "T1 construct": "purchased R&D systems", "T1 sequence (Q9BYF1 18-805)": "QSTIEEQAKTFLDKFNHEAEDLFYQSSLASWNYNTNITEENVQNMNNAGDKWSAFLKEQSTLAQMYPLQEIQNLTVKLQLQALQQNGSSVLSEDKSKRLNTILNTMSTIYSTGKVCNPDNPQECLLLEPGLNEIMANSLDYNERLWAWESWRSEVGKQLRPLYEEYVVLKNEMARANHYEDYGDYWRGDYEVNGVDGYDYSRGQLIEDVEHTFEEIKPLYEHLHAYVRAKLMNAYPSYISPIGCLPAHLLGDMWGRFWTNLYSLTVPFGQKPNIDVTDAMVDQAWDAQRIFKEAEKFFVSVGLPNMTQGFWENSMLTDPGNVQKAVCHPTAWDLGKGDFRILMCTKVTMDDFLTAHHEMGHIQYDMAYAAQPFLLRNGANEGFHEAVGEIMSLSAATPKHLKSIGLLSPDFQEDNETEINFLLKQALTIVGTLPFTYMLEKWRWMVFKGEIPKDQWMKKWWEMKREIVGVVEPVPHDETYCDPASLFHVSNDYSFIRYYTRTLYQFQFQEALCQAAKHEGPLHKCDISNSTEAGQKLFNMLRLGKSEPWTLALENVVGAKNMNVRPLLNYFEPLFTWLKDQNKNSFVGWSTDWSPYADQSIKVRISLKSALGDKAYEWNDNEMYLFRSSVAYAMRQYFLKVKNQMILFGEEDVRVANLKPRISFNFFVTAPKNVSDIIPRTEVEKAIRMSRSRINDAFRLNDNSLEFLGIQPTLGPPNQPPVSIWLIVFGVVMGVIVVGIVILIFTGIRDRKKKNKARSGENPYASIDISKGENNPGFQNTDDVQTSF", "design": "method as in PMID 26931059", "conditions": "20 amino acid peptide from Bothrops asper myotoxin; cited from earlier work"}, "rhACE2 [2]": {"target": "T1, rhACE2", "test": "ACE2-dependent breakdown of angiotensin II and formation of angiotensin 1-7 by LCMS", "type": "biochemical", "conditions": "2A 1.7 μM, n=4", "protocol": "The effect of 2A on ACE2-mediated cleavage of angiotensin II was assessed using LCMS. rhACE2 (0.1 ng/μL) was incubated with 2A (1.7 μM) for 1 h at 37 °C. Angiotensin II (0.02 μg/μL) was then added. Aliquots of equal volumes were collected at T = 0, 3, 6 and 24-h. Aliquots were immediately acidified with trifluoroacetic acid (0.1% final). Samples were snap frozen in dry ice and lyophilized for analysis by LCMS.\nPrior to loading, samples were reconstituted in 100 μL loading buffer. Samples were analysed using a quadrupole TOF mass spectrometer (MicroTOFq, Bruker Daltonics, Bremen, Germany) coupled online with a 1200 series nano HPLC (Agilent Technologies). Samples were loaded onto a zorbax 300SB reversed-phase trap column equilibrated with 95% buffer A (0.1% formic acid). The flow rate was set to 10 μL/min. The components were eluted over a 10 min gradient to 70% buffer B (80% acetonitrile, 0.1% formic acid) and peptides were separated on zorbax 300SB-C18 nano column (75 μm × 15 cm, 3.5 μm). The eluant was nebulised and ionised using the Bruker nano-ESI source with a capillary voltage of 4500 V, dry gas at 180° C, flow rate set at […] and nebuliser gas pressure at 300 mbar. The mass spectrometry acquisition was in selected ion monitoring mode after selected ion extraction of the mass spectrometry spectra. […]"}, "[3]": {"test": "Stability of 2A in cell culture (HEK293), LCMS", "type": "in vitro ADME", "conditions": "peptide 9 μM, 60 min; for remaining at 1 h, 9 μM: human, HEK293 cells in culture, HEK293 cells 20,000 cells/well, Opti-MEM reduced serum media, mean ± SEM, read-out: amount remaining in the medium of HEK293 cells at T60 min compared with T0 min", "protocol": "HEK293 (passage 24) were seeded into tissue-culture-grade 96-well plates at a density of 20,000 cells/well. After 24 h, cells were washed with PBS and replaced with Opti-MEM reduced serum media containing amidated or non-amidated 2A (9 μM). Aliquots of equal volume were taken at T = 0 and 60 min. Amidated 2A was added to control wells having media (no cells) only. Samples were immediately acidified in 0.1% TFA, snap frozen in dry ice and stored in −80 °C until analyzed by LCMS.\nSamples were analyzed by LC-MS/MS on a Shimadzu Nexera uHPLC (Japan) coupled to a Triple Tof 5600 mass spectrometer (ABSCIEX, Canada) equipped with a duo electrospray ion source. One μl of each extract was injected onto a 2.1 mm × 100 mm Zorbax C18 1.8um column (Agilent) at 200 μL/min. Linear gradients of 1–50% solvent B over 7 min at 200 μL/min flow rate, followed by a steeper gradient from 50% to 98% solvent B in 1 min were used for peptide elution. Solvent B was held at 98% for 3 min for washing the column and returned to 1% solvent B for equilibration prior to the next sample injection. Solvent A consisted of 0.1% formic acid (aq) and solvent B contained 90/10 acetonitrile/ 0.1% formic acid (aq). The ionspray voltage was set to 5500 V, declustering potential (DP) 100 V, curtain gas flow 25, nebuliser gas 1 (GS1) 50, GS2 to 60, interface heater at 150 °C and the turbo heater to 500 °C. The mass spectrometer acquired 500ms full scan high resolution, at 30,000 resolving power, TOF-MS data over the mass range […].\nBoth amidated and non amidated 2A were quantified using the [M+2H]^2+ doubly charged molecular ion from m/z 575.32 to 575.37.\nThe data was acquired using Analyst TF 1.6 and quantification was carried out using MultiQuant 2.1.1 software (ABSCIEX, Canada)."}, "[4]": {"test": "Pharmacokinetics and tissue distribution of 2A in normal mice", "conditions": "LC-MS/MS", "method": "Wild-type C57BL/6J mice (male, 10–12 weeks old) were purchased from the Animal Resources Centre (Western Australia, Australia). All animals were housed within the University of Queensland Biological Resources animal facility in a pathogen-free environment with a 12 h dark/12 h light cycle and free access to food and water.\nThe pharmacokinetic (PK) profile and biodistribution of 2A peptide was assessed in mice (n=5; per route at a dose of 1 mg/kg) after intravenous (i.v; tail vein), subcutaneous (s.c; between the shoulders) and intranasal (i.n; 10μl in each nostril with total volume of 20μl) administration. Blood samples were collected at 10, 20, 30, 45, 60 mins, 2 h and 4 h after drug administration via the tail vein using a microsampling technique[27]. At the terminal time point (24 h post administration), animals were anaesthetised with zolazepam (50 mg/kg) and xylazine (12 mg/kg) via i.p. injection. Blood samples were then collected via cardiac puncture as well as tail bleed to validate the sampling protocol. Plasma was isolated from blood samples by centrifugation (2000 g for 10 min at 4 °C), and stored at −80 °C. Following blood collection at the termination time point, mice were immediately perfused transcardially with saline to remove blood from tissues. Harvested tissue samples were then weighed and homogenized in an equal weight volume of milliQ water. On the day of analysis, aliquots (5 μL) of thawed plasma samples and 100μL of tissue homogenates were mixed with internal standard (10 μL) and processed for peptide quantification using a semi-validated LC–MS/MS method as described previously[28].\nQuantification of 2A peptide was performed using AcF-[OPdChaWR] peptide as an internal standard as described previously[28]. […] Concentrations of 2A peptide in samples was measured against known concentration of internal standard and peak area ratio of analyte to internal standard. […]"}, "[5]": {"test": "Streptozotocin (STZ) model of type 1 diabetes in mice", "type": "in vivo, C57Bl/6J mice", "protocol": "Streptozotocin (STZ; 150 mg/kg; i.p) was used to induce type 1 diabetes in male C57BI/6J mice. Blood glucose was measured 1 week post STZ injection to confirm the presence of diabetes (BG levels > 15 mmol/L at 1 week post STZ injection was included in this study). After establishment of diabetes (T0), mice were randomly allocated to receive 2A (1 mg/kg/ day; 10% DMSO in saline) or vehicle (10% DMSO in saline) via subcutaneous minipumps for a period 3 months. Non fasting blood glucose levels were measured every 2 weeks until study end (T3), and body weight was measured daily, until study end. 24-h urine samples were collected at 1 month intervals since commencement of 2A or its vehicle. (Detailed Methods section is provided at the end of the Discussion).\nStreptozotocin (STZ) is a widely used model of type I diabetes which closely mimic the human disease[31],[32]. Male C57Bl/6J mice were purchased from Animal Resources Centre (Western Australia, Australia) and these mice were acclimatized for at least one week prior to inducing diabetes. […] Mouse body weight was measured daily. Blood glucose levels were measured via tail bleed 1-week post-STZ injection to confirm the establishment of diabetes (CareSens N; iSENS, Seoul, Korea). […] Blood glucose levels were measured every 2 weeks until the end of the treatment period. […]"}, "SARS-CoV-2": {"tested_on": "SARS-CoV-2", "type": "cell-based", "conditions": "350 μM, pre-treated apically and basolaterally 1 h, then added every 12 h for 48 h; MOI 3; n=3 donors; versus PBS"}}, "note": "Peptide text beside a SMILES is read from it.", "data": [{"molecule": "20 amino acid peptide: synthetic peptide corresponding to the first 20 amino acids of Bothrops asper myotoxin II", "values": [{"measurement": "effect on recombinant human ACE2 enzyme activity", "setting": "rhACE2 [1]", "value": "stimulates recombinant human ACE2 enzyme activity"}]}, {"molecule": "CC[C@H](C)[C@H](NC(=O)[C@H](CCSC)NC(=O)[C@H](CCCCN)NC(=O)CNC(=O)[C@H](CC(C)C)NC(=O)[C@H](CCC(=O)O)NC(=O)[C@H](Cc1ccccc1)NC(=O)[C@H](CC(C)C)NC(=O)[C@@H](N)CO)C(=O)N[C@@H](CC(C)C)C(N)=O", "note": "[2A] (H-SLFELGKMIL-NH2)", "values": [{"measurement": "increase of Ang 1-7 levels in the presence of ACE2 + 2A compared to ACE2 alone", "setting": "rhACE2 [2]", "value": "165 ± 12", "unit": "%"}, {"measurement": "reduction of Ang II levels in the presence of ACE2 + 2A", "setting": "rhACE2 [2]; over a 24-h period, ACE2 alone 58 ± 4%", "value": "83 ± 5", "unit": "%"}, {"measurement": "remaining at 1 h, 9 μM", "setting": "[3]", "value": "54 ± 4", "unit": "%"}, {"measurement": "amount remaining in the cell culture medium in the absence of cells at T60 min", "setting": "[3]; media only (no cells), Opti-MEM, possible adherence to plastic", "value": "63 ± 14", "unit": "%"}, {"measurement": "detection in plasma 24 h post administration", "setting": "[4]; 1 mg/kg i.v., s.c. or i.n., C57BL/6J mice, n=5 per route", "value": "a small amount of peptide was still detected"}, {"measurement": "clearance from the circulation", "setting": "[4]; 1 mg/kg i.v., s.c. or i.n., C57BL/6J mice, plasma, n=5 per route", "value": "rapidly cleared from the circulation over the first 4h"}, {"measurement": "tissue distribution 24-h post administration (heart, lung, spleen, kidney, brain and spinal cord)", "setting": "[4]; 1 mg/kg, irrespective of the route (i.v., s.c., i.n.), tissue homogenates", "value": "detectable at low concentrations"}, {"measurement": "effects on organ weight", "setting": "[5]; 2A 1 mg/kg/day, 3 months", "value": "minimal effects"}, {"measurement": "untoward effects in animal models", "setting": "[5]; pre-clinical animal models of this paper", "value": "did not observe any untoward effects"}]}, {"molecule": "N=C(N)c1ccc(/N=N/Nc2ccc(C(=N)N)cc2)cc1", "note": "[DIZE, diminazene]", "values": [{"measurement": "viral titres produced by epithelial cells at 48 hours post-infection", "setting": "SARS-CoV-2", "value": "not significantly different"}]}, {"molecule": "CC[C@H](C)[C@H](NC(=O)[C@H](CCSC)NC(=O)[C@H](CCCCN)NC(=O)CNC(=O)[C@H](CC(C)C)NC(=O)[C@H](CCC(=O)O)NC(=O)[C@H](Cc1ccccc1)NC(=O)[C@H](CC(C)C)NC(=O)[C@@H](N)CO)C(=O)N[C@@H](CC(C)C)C(=O)O", "note": "[non-amidated 2A] (H-SLFELGKMIL-OH; N-terminus assumed)", "values": [{"measurement": "remaining at 1 h, 9 μM", "setting": "[3]", "value": "29 ± 3", "unit": "%"}]}]}
